Assay results reported in paper PMC3772838, “Preclinical Development of a Novel Class of CXCR4 Antagonist Impairing Solid Tumors Growth and Metastases” (PLoS ONE, 2013).
Bridges are numbered along the chain shown (N, C = ends). Where no end group is shown, it is not given here.

Legend:
CXCR4 = test: Competition with 12G5 anti-CXCR4 antibody binding (flow cytometry); parameters: species or system human; details: CCRF-CEM cells, 10 µM peptide, 30 min pre-incubation at 37°C, PE-labelled 12G5, flow cytometry; at least three experiments
Procedure: (§1) CXCR4 binding was evaluated as previously described. Briefly 5×10^5 CCRF–CEM cells were pre-incubated with 10 µM peptides or AMD3100 in binding buffer (PBS 1× plus 0.2% BSA and 0.1% NaN3) for 30 minutes at 37°C, 5% CO2 and then labeled for 30 minutes with anti-CXCR4 PE-antibody (FAB170P, clone 12G5, R&D Systems, Minneapolis, MN, USA). The cells were analyzed by FACS Canto II cytofluorometer (Becton Dickinson Immunocytometry Systems, Mountain View, CA, USA).
(A) The amount of peptides or AMD3100 bound was assessed indirectly by flow cytometry using the PE-labelled anti-CXCR4 antibody (clone 12G5). Results are expressed as the percent antibody bound. (B) The Ca^2+ influx assay was performed using CCRF-CEM cells and Fluo-3 AM calcium indicator. CCRF-CEM cells were incubated 30 minutes at 37°C with Fluo-3 AM and 15 minutes with AMD3100 (10 µM)/peptides (10 µM) and then treated with CXCL12. Results are expressed as the percent of Fluo-3 AM fluorescence in presence of CXCL12 alone. Each peptide was tested in at least three different experiments. Double tailed T-Test was used for statistical analyses. Differences were considered significant at P<0.05 compared to control. Control (CTRL).

[1] = tested on: B16-CXCR4 murine melanoma cells; test: B16-CXCR4 melanoma lung metastases model; format: in vivo, C57BL/6 mice; details: cells pre-treated 30 min with 10 µM, IP once a day for 10 days, peptides 2 mg/kg, AMD3100 1.25 mg/kg; for number of lung metastases: control 8.4±3.49, average
Procedure: All mice were obtained from Harlan (Bar Harbor, ME, USA) and their care was in accord with institutional guidelines. Twenty-five 6-8-week-old female C57BL/6 mice were inoculated into the tail vein with 5×10^5 B16–CXCR4 cells pre-treated for 30 minutes with peptide S (10 µM), peptide R (10 µM), peptide I (10 µM), or AMD3100 (10 µM). Six hours later intraperitoneal (IP) treatment started with AMD3100 (1.25 mg/kg) or each peptide (2 mg/kg) in sterile PBS once a day for 10 days. A week later the mice were sacrificed. The experiment was repeated three times. The lung metastases assay was also conducted with K7M2 murine osteosarcoma cells. Twenty-five 6-8-week-old female Balb/c mice were injected via tail vein with 2.5×10^5 K7M2 cells pre-treated for 30 minutes with AMD3100 (10 µM), peptide S (10 µM), peptide R (10 µM), peptide I (10 µM) and animals were treated IP daily for 15 days with 2.5 mg/kg for AMD3100 group and 10 mg/kg for each peptide groups. A week later the mice were sacrificed. Xenograft tumor growth was evaluated using pEGFP-SN12C cells in exponential growth phase subcutaneously injected into the right flank of twenty-five 6-8-week-old female CD1 nude mice. 2×10^6 SN12C-pEGFP were injected in the right flank of each mouse and treated with AMD3100 (1.25 mg/kg) and peptides (2 mg/kg) for 10 days ip. A week later mice were euthanized and tumor volume evaluated through Leica MacroFluo fluorescence stereomicroscope (Leica microsystem, Houston, TX). The experiment was repeated three times. The Istituto Nazionale per lo Studio e la Cura dei Tumori, Fondazione Giovanni Pascale Independent Etical Comettee approved the study (CEI/600/12).
(A) B16-CXCR4 tumor cells pre-treated for 30 minutes with AMD3100 (10 µM), peptide R (10 µM), peptide I (10 µM), or peptide S (10 µM) were inoculated into the tail vein of C57/B female mice and the mice were further treated intraperitoneally for 10 days with 1.25 mg/kg AMD3100, or 2 mg/kg peptide R, peptide I or peptide S. Gross examination of representative lungs; (B) Graphical representation of the number of lung metastases in treated mice. Double tailed T-Test was used for statistical analyses. The experiments were repeated three times.

[2] = tested on: PES43 human melanoma cells; test: CXCL12-dependent Transwell migration of PES43 cells; format: cell-based; details: 100 ng/mL CXCL12 in lower chamber, 16 h, tested 10 nM, 100 nM, 1 µM, 10 µM
Procedure: (§2) Migration was assayed in 24-well Transwell chambers (Corning Inc., Corning, NY) using inserts with an 8-µm pore membrane. Membranes were precoated with collagen (human collagen type I/III) and fibronectin (20 µg/mL each). […] After 16 h incubation, cells on the upper surface of the filter were removed using a cotton wool swab; migration of cells in migration media alone was compared with migration in media containing CXCL12. The cells were counted in ten different fields (original magnification ×40). The migration index was defined as the ratio between migrating cells in the experimental group and migrated cells in the control group. For the wound closure assay, tested cells were allowed to reach confluence in six-well plates containing serum-depleted growth medium and scratched with pipette tips to make wounds. The wound closure was observed microscopically 6 hours post-wounding (OKO Time Lapse).
(§3) Experiments were conducted using PES43 cells. (A) Migration was assayed in 24-well Transwell chambers using inserts with 8-µm pore membrane. […] Migrated cells on the lower surface were fixed, stained with H&E and counted microscopically. The results are expressed as the migration index relative to migration in presence of BSA alone. […] Images were acquired with OKO Time Lapse. […] PES43 cells were serum-starved and incubated with CXCL12 (100 ng/ml) alone or in presence of AMD3100/peptides. Each peptide was tested in at least three different experiments. Double tailed T-Test was used for statistical analyses. Differences were considered significant at P<0.05 compared to control.

[3] = tested on: SN12C-GFP human renal cancer cells; test: CXCL12-induced SN12C-GFP migration; format: cell-based; details: Figure 5
Procedure: as §2
6 to 8-week-old female CD1 nude mice were injected subcutaneously with 2×10^6 pEGFP-SN12C cells pre-treated with 10 µM AMD3100 or 10 µM of each peptide. […] The experiments were repeated three times.

CXCR3 = test: Anti-CXCR3 antibody (clone 1C6/CXCR3) binding in CXCR3 overexpressing cells; parameters: species or system human; details: COLO205 cells; peptides 10 µM, CXCL11 100 nM, 30 min pre-incubation; Figure S3
Procedure: [The procedure below names another target; the source says it served here with some conditions changed.] as §1
(§4) Fluo-3AM and Pluronic acid were added to each sample to increase Fluo-3AM solubility and improve dye loading into the cells. (TIF) Click here for additional data file.

CXCR7 = test: Anti-CXCR7 antibody (clone 11G8) binding in CXCR7 overexpressing cells; parameters: species or system human; details: MCF-7 cells; peptides 10 µM, CXCL11 100 nM, 30 min pre-incubation; Figure S3
Procedure: [The procedure below names another target; the source says it served here with some conditions changed.] as §1, §4

[4] = tested on: PES43 human melanoma cells; test: CXCL12-mediated wound closure assay; format: cell-based; details: 6 hours post-wounding
Procedure: as §2, §3

[5] = tested on: K7M2 murine osteosarcoma cells; test: K7M2 in vitro migration; format: cell-based, mouse; details: Figure 4
Procedure: as §2

| Substance | association of the 12G5-CXCR4 antibody to the receptor (CXCR4) | fold reduction of the number of lung metastases vs control [1] [fold] | number of lung metastases [1] | concentration at which CXCL12-dependent migration was inhibited [2] [nM] | CXCL12-induced SN12C-GFP migration [3] | binding to CXCR3 (anti-CXCR3 antibody) (CXCR3) | binding to CXCR7 (anti-CXCR7 antibody) (CXCR7) | CXCL12-mediated wound healing [4] | K7M2 in vitro migration [5] |
| --- | --- | --- | --- | --- | --- | --- | --- | --- | --- |
| Arg-Ala-[Cys-Arg-Phe-Phe-Cys] (RACRFFC; disulfide 3-7) [Peptide R, CXCL12-mimetic disulfide-cyclic peptide] | 21 % of control | 7 | 1.2±1.4 | ≤ 10 | inhibited | unaffected | unaffected | delayed | reduced |
| Arg-Ala-[Cys-Arg-His-Trp-Cys] (RACRHWC; disulfide 3-7) [Peptide S, CXCL12-mimetic disulfide-cyclic peptide] | 17 % of control | – | 2.96±2.39 | ≤ 10 | inhibited | unaffected | unaffected | delayed | reduced |
| [Cys-Trp-His-Arg-Cys] (CWHRC; disulfide 1-5) [Peptide I, v-MIP-II mimetic disulfide-cyclic peptide] | 45 % of control | 41.5 | 0.2±0.44 | ≤ 10 | inhibited | unaffected | unaffected | delayed | reduced |
